Bounds are passed on as bounds.

Assay [1] has as its system human chronic myelocytic leukemia-derived K562 cells. Briefly: Cell growth inhibition test with K562 cells (WST-1). It is filed as cell-based. As to conditions: 72 hours, read-out: 50% growth inhibition concentration (GI50). The method, boiled down: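 K562 cells at 1500 cells/well in 10% FCS RPMI 1640, pre-incubated 5 h, then exposed to serially diluted compound for 72 h at 37° C, 5% CO2. Viability read by WST-1 after 2 h (absorbance 450/655 nm); GI50 reported.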
A general note: Tetrazolium assays rely on reduction of a dye to a coloured formazan, in cell work by metabolically active cells.

In assay [2] the test system is human mammary cancer-derived KPL-4 cells. Briefly: Cell growth inhibition test with KPL-4 cells (WST-1). It is filed as cell-based. The settings on record: KPL4, 72 hours, read-out: 50% growth inhibition concentration (GI50). The method, boiled down:
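Growth inhibition from WST-1 absorbance difference (450 minus 655 nm) after 1 h, relative to untreated control as 100%, giving GI50. KPL-4 cells had 24 h pre-culture in DMEM/10% FCS before 72 h compound exposure at 37 °C under 5% CO2.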

For the compound `CCc1c(O)cc(O)c(-c2ccccc2)c1CCOCCO` [Compound 161, 6-Ethyl-5-[2-(2-hydroxyethoxy)ethyl]-4-phenylbenzene-1,3-diol], the GI50 in assay [1] and in assay [2] was at most 50 µM in each case.
As to `C=CCOCCCc1c(CC)c(O)cc(O)c1-c1ccccc1` [Compound 145, 5-(3-Allyloxypropyl)-6-ethyl-4-phenylbenzene-1,3-diol], the GI50 in assay [1] and in assay [2] was at most 50 µM each time.
Take `CCc1c(O)cc(O)c(-c2cccc(OC)c2)c1CCOCC(O)CO` (stereo not shown) [Compound 189, 5-[2-(2,3-Dihydroxypropoxy)ethyl]-6-ethyl-4-(3-methoxyphenyl)benzene-1,3-diol]: the GI50 in assay [1] and in assay [2] was at most 50 µM in each case.
Regarding `OCCCc1c(Br)c(O)cc(O)c1-c1ccccc1` [Compound 104, 6-Bromo-5-(3-hydroxypropyl)-4-phenylbenzene-1,3-diol], the GI50 in assay [1] and in assay [2] was at most 50 µM each time.
Regarding `CCc1c(O)cc(O)c(-c2cccc(OC)c2)c1CCO` [Compound 143, 6-Ethyl-5-(2-hydroxyethyl)-4-(3-methoxyphenyl)benzene-1,3-diol], the GI50 in assay [1] and in assay [2] was at most 50 µM in each case.
For the compound `CCc1c(O)cc(O)c(-c2ccccc2)c1CCCOCC(=O)NCCO` [Compound 167, 2-[3-(2-Ethyl-3,5-dihydroxy-6-phenylphenyl)propoxy]-N-(2-hydroxyethyl)acetamide], the GI50 in assay [1] and in assay [2] was at most 50 µM each time.
On to `CCc1c(O)cc(O)c(-c2cccc(O)c2)c1CCOCC(O)CO` (stereo not shown) [Compound 173, 5-[2-(2,3-dihydroxypropoxy)ethyl]-6-ethyl-4-(3-hydroxyphenyl)benzene-1,3-diol], for which the GI50 in assay [1] and in assay [2] was at most 50 µM throughout.
In the case of `CCc1c(O)cc(O)c(-c2ccccc2)c1CCOC` [Compound 83, 6-Ethyl-5-(2-methoxyethyl)-4-phenylbenzene-1,3-diol], the GI50 in assay [1] and in assay [2] was at most 50 µM each time.
Turning to `CCc1c(O)cc(O)c(-c2ccccc2)c1CCCOCCO` [Compound 162, 6-Ethyl-5-[3-(2-hydroxyethoxy)propyl]-4-phenylbenzene-1,3-diol], the GI50 in assay [1] and in assay [2] was at most 50 µM throughout.
Consider `COC(=O)Cc1c(C(C)=O)c(O)cc(O)c1-c1ccccc1` [Compound 69, Methyl 2-acetyl-3,5-dihydroxy-6-phenylphenylacetate], for which the GI50 in assay [1] and in assay [2] was at most 50 µM throughout.
With `CCc1c(O)cc(O)c(-c2cccc(O)c2)c1CCO` [Compound 172, 6-Ethyl-5-(2-hydroxyethyl)-4-(3-hydroxyphenyl)benzene-1,3-diol], the GI50 in assay [1] and in assay [2] was at most 50 µM each time.
Regarding `COCCOCCc1c(C(C)=O)c(O)cc(O)c1-c1cccc(O)c1` [Compound 165, 1-{2,4-Dihydroxy-5-(3-hydroxyphenyl)-6-[2-(2-methoxyethoxy)ethyl]phenyl}ethanone], the GI50 in assay [1] and in assay [2] was at most 50 µM each time.
Consider `CCc1c(O)cc(O)c(-c2ccccc2)c1Cc1nn(CCO)c(=O)o1` [Compound 318, 5-[(2-Ethyl-3,5-dihydroxy-6-phenylphenyl)methyl]-3-(2-hydroxyethyl)-3H-1,3,4-oxadiazol-2-one], for which the GI50 in assay [1] was at most 50 µM.
The same measure, in the same setting: under `CCc1c(O)cc(O)c(-c2cc(C)cc(C)c2)c1CC1O[C@@H](CO)[C@H](CO)O1` [Compound 283, 5-{[(4S,5S)-4,5-bis(hydroxymethyl)-1,3-dioxolan-2-yl]methyl}-4-(3,5-dimethylphenyl)-6-ethylbenzene-1,3-diol] stands at most 50 µM.
Same read-out and setting: then `CCc1c(OC(=O)N2CCN(C)CC2)cc(O)c(-c2ccccc2)c1CCOCCOC` [Compound 327, 4-Ethyl-3-[2-(2-methoxyethoxy)ethyl]-5-(4-methylpiperazin-1-ylcarbonyloxy)-2-phenylbenzen-1-ol], with at most 50 µM; and `CCc1c(O)cc(O)c(-c2ccccc2)c1CC1OCC(CO)O1` (stereo not shown) [Compound 211, 6-Ethyl-5-[(4-hydroxymethyl-1,3-dioxolan-2-yl)methyl]-4-phenylbenzene-1,3-diol], with at most 50 µM; and `CCc1c(O)cc(O)c(-c2ccccc2)c1CCc1ocnc1C(=O)NCCO` [Compound 223, 5-[2-(2-Ethyl-3,5-dihydroxy-6-phenylphenyl)ethyl]-N-(2-hydroxyethyl)-1,3-oxazole-4-carboxamide], with at most 50 µM.
With `CCc1c(O)cc(O)c(-c2ccccc2)c1CCC(CO)CO` [Compound 215, 6-Ethyl-5-[4-hydroxy-3-(hydroxymethyl)butyl]-4-phenylbenzene-1,3-diol], the GI50 in assay [1] is at most 50 µM.
Take `CCc1c(O)cc(O)c(-c2ccccc2)c1CCC(=O)NCCO` [Compound 220, 3-(2-Ethyl-3,5-dihydroxy-6-phenylphenyl)-N-(2-hydroxyethyl)propanamide]: the GI50 in assay [1] was at most 50 µM.
The same measure, in the same setting: then `OC[C@H]1OC(Cc2cc(O)cc(O)c2-c2ccccc2)O[C@@H]1CO` [Compound 230, 5-{[(4R,5R)-4,5-bis(hydroxymethyl)-1,3-dioxolan-2-yl]methyl}-4-phenylbenzene-1,3-diol], with at most 50 µM; and `CCc1c(O)cc(O)c(-c2ccccc2)c1CC(=O)N(CCO)CCCOC` [Compound 322, 2-(2-Ethyl-3,5-dihydroxy-6-phenylphenyl)-N-(2-hydroxyethyl)-N-(3-methoxypropyl)acetamide], with at most 50 µM.
Take `CCc1c(O)cc(O)c(-c2ccc(OC)c(OC)c2)c1CCOCCO` [Compound 309, 6-Ethyl-5-[2-(2-hydroxyethoxy)ethyl]-4-(3,4-dimethoxyphenyl)benzene-1,3-diol]: the GI50 in assay [1] was at most 50 µM.
In the case of `CCc1c(O)cc(O)c(-c2ccccc2)c1Cc1ocnc1CO` [Compound 208, 6-Ethyl-5-{[4-(hydroxymethyl)-1,3-oxazol-5-yl]methyl}-4-phenylbenzene-1,3-diol], the GI50 in assay [1] is at most 50 µM.
Same read-out and setting: under `CCc1c(O)cc(O)c(-c2ccccc2)c1Cc1ocnc1C(=O)OC` [Compound 200, Methyl 5-[(2-ethyl-3,5-dihydroxy-6-phenylphenyl)methyl]-1,3-oxazole-4-carboxylate] stands at most 50 µM; under `CCc1c(O)cc(O)c(-c2ccc(F)c(Cl)c2)c1CC1O[C@H](CO)[C@@H](CO)O1` [Compound 293, 5-{[(4R,5R)-4,5-bis(hydroxymethyl)-1,3-dioxolan-2-yl]methyl}-4-(3-chloro-4-fluorophenyl)-6-ethylbenzene-1,3-diol], at most 50 µM.
Still for that read-out and setting: then `CCc1c(O)cc(O)c(-c2ccccc2)c1CCC(O)CC(O)CO` (stereo not shown) [Compound 170, 6-Ethyl-4-phenyl-5-(3,5,6-trihydroxyhexyl)benzene-1,3-diol], with at most 50 µM; and `CC(=O)c1c(O)cc(O)c(-c2ccccc2)c1CC1O[C@@H](CO)[C@H](CO)O1` [Compound 287, 6-Acetyl-5-{[(4S,5S)-4,5-bis(hydroxymethyl)-1,3-dioxolan-2-yl]methyl}-4-phenylbenzene-1,3-diol], with at most 50 µM.
Turning to `CCc1c(O)cc(O)c(-c2ccccc2)c1CCc1ocnc1C(=O)N(CCO)CCO` [Compound 224, 5-[2-(2-ethyl-3,5-dihydroxy-6-phenylphenyl)ethyl]-N,N-bis(2-hydroxyethyl)-1,3-oxazole-4-carboxamide], in assay [1], the GI50 is at most 50 µM.
Regarding `CCc1c(OC(C)=O)cc(OC(C)=O)c(-c2ccccc2)c1CCOCCOC` [Compound 328, 1,5-Bis(acetyloxy)-4-ethyl-3-[2-(2-methoxyethoxy)ethyl]-2-phenylbenzene], in assay [1], the GI50 is at most 50 µM.
The same measure, in the same setting: then `CC(=O)c1c(O)cc(O)c(-c2cccc(O)c2)c1CCOCCO` [Compound 310, 1-{2,4-Dihydroxy-6-[2-(2-hydroxyethoxy)ethyl]-5-(3-hydroxyphenyl)phenyl}ethanone], with at most 50 µM; and `CCc1c(O)cc(O)c(-c2cccc(C(=O)NCCOC)c2)c1CC1O[C@H](CO)[C@@H](CO)O1` [Compound 303, 5-{[(4R,5R)-4,5-Bis(hydroxymethyl)-1,3-dioxolan-2-yl]methyl}-6-ethyl-4-[3-(2-methoxyethyl)carbamoylphenyl]benzene-1,3-diol], with at most 50 µM; and `OC[C@H]1OC(Cc2c(Br)c(O)cc(O)c2-c2ccccc2)O[C@@H]1CO` [Compound 232, 5-{[(4R,5R)-4,5-bis(hydroxymethyl)-1,3-dioxolan-2-yl]methyl}-6-bromo-4-phenylbenzene-1,3-diol], with at most 50 µM.
On to `CCc1c(O)cc(O)c(-c2ccc(F)c(C)c2)c1CC1O[C@H](CO)[C@@H](CO)O1` [Compound 291, 5-{[(4R,5R)-4,5-bis(hydroxymethyl)-1,3-dioxolan-2-yl]methyl}-6-ethyl-4-(4-fluoro-3-methylphenyl)benzene-1,3-diol], for which the GI50 in assay [1] was at most 50 µM.
As for `CCc1c(O)cc(O)c(-c2ccccc2)c1CCC(N)=O` [Compound 212, 3-(2-Ethyl-3,5-dihydroxy-6-phenylphenyl)propanamide], in assay [1], the GI50 was at most 50 µM.
Still for that read-out and setting: then `CCc1c(O)cc(O)c(-c2cccc(NC(=O)c3ccccc3)c2)c1CCOCC(O)CO` (stereo not shown) [Compound 205, 4-[3-(N-benzoylamino)phenyl]-5-[2-(2,3-dihydroxypropoxy)ethyl]-6-ethylbenzene-1,3-diol], with at most 50 µM; and `CC(=O)c1c(O)cc(O)c(-c2ccccc2)c1CC1O[C@H](CO)[C@@H](CO)O1` [Compound 234, 1-(6-{[(4R,5R)-4,5-bis(hydroxymethyl)-1,3-dioxolan-2-yl]methyl}-2,4-dihydroxy-5-phenylphenyl)ethanone], with at most 50 µM.
Same read-out and setting: then `CCc1c(O)cc(O)c(-c2ccccc2)c1CCCC(CO)CO` [Compound 217, 6-Ethyl-5-[5-hydroxy-4-(hydroxymethyl)pentyl]-4-phenylbenzene-1,3-diol], with at most 50 µM.

The record behind these values is patent publication US7538241B2, “Hsp90 family protein inhibitors” (Kyowa Hakko Kogyo Co., Ltd., priority 2003, dated 2009).
